In patent publication US8372848B2, “Melanin-concentrating hormone receptor antagonists and methods of use” (Mixture Sciences, Inc., priority 2004, dated 2013):

Experiments:
[1] = target: rat MCH1R (Rattus norvegicus, UniProt P97639); test: MCH-induced Ca2+ mobilization (FLIPR) in HEK 293T cells expressing rat MCH1R; format: cell-based; settings: HEK 293T cell expressing rat MCH1R; read-out: EC50 for stimulation of Ca2+ mobilization
[2] = system: rats; test: MCH-induced food intake after icv administration; format: in vivo, rat; settings: 2 nmol icv
Description: To determine inhibitory effects of TPI 1361-17 on MCH-induced food intake, rats were habituated to a wire bottom cage for more than 3 weeks prior to the experiment. Experiments were carried out from 6 a.m. to 7 a.m. when rats were satiated. […] On the other hand, five nmol of TPI 1361-17 suppressed cumulative food intake by 75% even at 4h (FIG. 5B).
To determine the effects of TPI 1361-17 on MCH-induced food intake, rats were randomly divided into three groups: 1) TPI 1361-17 (dissolved in DMSO) and 2 nmol of MCH; 2) MCH 2 nmol, 3) ACSF. Each mixture contained a DMSO equivalent concentration to that of the antagonist solution (up to 5% (v/v)). Ten μl of each solution was administered into lateral ventricle for 2 minutes. The injections were done between 7:00-8:00 a.m., and food intake was monitored for 4 h after the injection.
For animal studies, adult male Sprague-Dawley rats weighing 200-300g were obtained from Charles River Laboratories (Wilmington, Mass.), bearing a 23-gauge stainless steel cannula placed into the right lateral ventricle. Rats were housed individually and maintained on a 12 h light-dark cycle (6:00 am-6:00 pm light) with free access to tap water and rat chaw (PROLAB RMH 2500, containing 23.0% protein, 4.5% fat, gross energy 4.5 kcal/g. PMI nutrition international, LLC. Brentwood, Mo.). Prior to all studies, rats were handled and habituated for 7 days, and 10 μl of artificial cerebrospinal fluid (ACSF: NaCl 124, KCl 5, CaCl2 2.4 MgSO4 2, KH2PO4 1.25, NaHCO3 26 and glucose 10, in mM) was injected through the cannula to minimize stress effects at the time of the experiment. Cannula placement was confirmed in all animals by evaluating the response to 50 ng of angiotensin II. Only animals drinking more than 5 ml of water in 1 h were used in feeding studies.

Chain of rat MCH1R (P97639 whole entry): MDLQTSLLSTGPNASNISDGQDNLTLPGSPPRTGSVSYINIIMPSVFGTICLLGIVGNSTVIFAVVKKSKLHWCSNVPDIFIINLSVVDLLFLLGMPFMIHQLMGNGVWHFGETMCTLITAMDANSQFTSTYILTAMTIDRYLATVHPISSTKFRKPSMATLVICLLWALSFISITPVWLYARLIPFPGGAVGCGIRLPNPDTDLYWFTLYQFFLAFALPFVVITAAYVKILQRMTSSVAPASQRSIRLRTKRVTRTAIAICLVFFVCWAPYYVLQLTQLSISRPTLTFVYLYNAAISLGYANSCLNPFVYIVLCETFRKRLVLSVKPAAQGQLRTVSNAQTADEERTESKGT

CSCC[C@@H]1NC(=O)[C@@H](NC(=O)[C@H](CCCNC(=N)N)NC(=O)[C@H](CC(C)C)NC(=O)[C@H](CCSC)NC(=O)[C@H](CC(=O)O)NC(=O)[C@H](Cc2ccccc2)NC(=O)[C@@H](N)CC(=O)O)CSSC[C@@H](C(=O)N[C@@H](Cc2c[nH]c3ccccc23)C(=O)N[C@@H](CCC(N)=O)C(=O)N[C@H](C(=O)O)C(C)C)NC(=O)[C@@H]2CCCN2C(=O)[C@H](CCCNC(=N)N)NC(=O)[C@H](Cc2ccc(O)cc2)NC(=O)[C@H](C(C)C)NC(=O)[C@H](CCCNC(=N)N)NC(=O)CNC(=O)[C@H](CC(C)C)NC1=O [MCH, reference compound]
EC50 [1]: 0.9 nM
Feeding in satiated rats [2]: induced rapid and robust feeding
